Test results taken from PMC3634028, “Novel α-MSH Peptide Analogues with Broad Spectrum Antimicrobial Activity” (PLoS ONE, 2013).
Converted amounts (≈) assume the structure as drawn. Where a SMILES comes first, the peptide text is derived from it.

Columns and labels:
[1] = tested on: C. glabrata; assay type: cell-based, Candida glabrata; conditions: 48 h
Protocol: (§1) Two Candida albicans isolates were purchased from the ATCC (No. 24433 and 76615). The other yeast isolates were obtained from the collection of Fondazione Ca' Granda- Ospedale Maggiore Policlinico, Milano. The collection included C. albicans (7 isolates), C. glabrata (3 isolates), and C. krusei (3 isolates). Antifungal susceptibility testing was performed using the broth microdilution method according to the NCCLS M27-A guidelines (National Committee for Clinical Laboratory Standards. 1997, Reference method for broth dilution antifungal susceptibility testing of yeasts and approved standard NCCLS document M27-A. National Committee for Clinical Laboratory Standards, Wayne, Pa.). […] After 48 h of incubation, the plates were inspected for purity. A colony was taken from the agar plate and transferred into 5 mL Sabouraud-dextrose broth and incubated for 48 h at 35°C. Cells were centrifuged at 1,000× g for 10 min and the pellet was washed twice with distilled water. Cells were counted and suspended in RPMI 1640 medium buffered to pH 7.0 with 0.165 mol l^−1 morpholinepropanesulphonic acid (MOPS) buffer (Sigma) to obtain the two times test inoculum (1×10^3 to 5×10^3 CFU/mL). […] The MIC90, i.e. the minimum inhibitory concentrations endpoint were determined as 90% reduction in turbidity measured using a spectrophotometer (Titertek multiscan at 690 nm wave length).

[2] = tested on: C. krusei; assay type: cell-based, Candida krusei; conditions: 48 h
Protocol: as §1

[3] = tested on: Candida strains (C. albicans, C. glabrata, C. krusei); assay: Anti-Candida assay, overall result in words; assay type: cell-based, Candida spp; conditions: standard culture conditions, broth culture medium
Protocol: as §1

[4] = tested on: C. albicans; assay type: cell-based, Candida albicans; conditions: 48 h
Protocol: as §1

[5] = tested on: Acinetobacter baumani ATCC 19606; assay type: cell-based; conditions: ATCC 19606, 18 h
Protocol: (§2) The strains used for the antimicrobial assays were the Gram-negative bacteria Acinetobacter baumani ATCC 19606, Escherichia coli D21, Pseudomonas aeruginosa ATCC 27853, and Pseudomonas syringae pv tabaci 1918NCPPB and the Gram-positive bacteria Bacillus megaterium Bm11, Staphylococcus aureus ATCC 25923, and Staphylococcus epidermidis ATCC 12228. Susceptibility testing was performed by adapting the microbroth dilution method outlined by the Clinical and Laboratory Standards Institute, using sterile 96-well plates (Falcon NJ, USA). The bacterial growth was aseptically measured by absorbance at 590 nm with a spectrophotometer (UV-1700 Pharma Spec Shimadzu, Tokyo, Japan). Afterwards, aliquots (50 µl) of bacteria in mid-log phase at a concentration of 2×10^6 colony-forming units (CFU)/mL in culture medium (Mueller-Hinton, MH) were added to 50 µl of MH broth containing the peptide in serial 2-fold dilutions ranging from 1.56 to 100 µM. Inhibition of microbial growth was determined by measuring the absorbance at 590 nm, after an incubation of 18 h at 37°C with a microplate reader (Infinite M200; Tecan, Salzburg, Austria).

[6] = tested on: Bacillus megaterium Bm11; assay type: cell-based; conditions: Bacillus Bm11, 18 h
Protocol: as §2

[7] = tested on: Escherichia coli D21; assay type: cell-based; conditions: D21, 18 h
Protocol: as §2

[8] = tested on: Pseudomonas aeruginosa ATCC 27853; assay type: cell-based; conditions: ATCC 27853, 18 h
Protocol: as §2

[9] = tested on: Pseudomonas syringae pv tabaci 1918NCPPB; assay type: cell-based; conditions: 18 h
Protocol: as §2

[10] = tested on: Staphylococcus aureus ATCC 25923; assay type: cell-based; conditions: ATCC 25923, 18 h
Protocol: as §2

[11] = tested on: Staphylococcus epidermidis ATCC 12228; assay type: cell-based; conditions: ATCC 12228, 18 h
Protocol: as §2

[12] = tested on: HaCaT keratinocyte cell line; assay: Cytotoxic activity, MTT colorimetric method; assay type: cell-based, human; conditions: highest peptide concentration used (100 µM), 24 h
Protocol: Effects on viability was tested in the immortalised keratinocyte cell line HaCaT using the [3(4,5-dimethylthiazol-2yl)2,5-diphenyltetrazolium bromide] (MTT) colorimetric method in which the intensity of the dye is proportional to the number of viable cells. MTT is a tetrazolium salt which is reduced to a colored formazan product by mitochondrial reductases present only in metabolically active cells. Cells were cultured in Dulbecco's modified Eagle's medium (DMEM; Sigma) supplemented with 10% heat inactivated fetal bovine serum, glutamine (4 mM) and gentamicin. Afterwards, cells were plated in triplicate wells of a microtiter plate, at 4×10^4 cells/well in DMEM supplemented with 2% serum without antibiotic. After overnight incubation at 37°C in a 5% CO2 atmosphere, the medium was replaced with […] fresh DMEM supplemented with the peptides at different concentrations. The plate was incubated for 24 h at 37°C in a 5% CO2 atmosphere. Then, DMEM was removed and replaced with Hank's medium (136 mM NaCl; 4.2 mM Na2HPO4; 4.4 mM KH2PO4; 5.4 mM KCl; 4.1 mM NaHCO3, pH 7.2, supplemented with 20 mM D-glucose) containing 0.5 mg/ml MTT. After 4 h incubation, the formazan crystals were dissolved by adding 100 µl of acidified isopropanol and absorption of each well was measured using a microplate reader (Infinite M200; Tecan, Salzburg, Austria) at 570 nm. Cell viability was e expressed as percentage of viability in control cells (cells not treated with peptide).
Figure 1 Effects of the synthetic melanocortins on viability of HaCat cells. Cells were plated in wells of a microtiter plate, at 4×10^4 cells/well in DMEM supplemented with 2% serum without antibiotic. After overnight incubation at 37°C in a 5% CO2 atmosphere, the medium was replaced with 100 µl fresh DMEM supplemented with the peptides at different concentrations. […] Cell viability is expressed as percentage of viability in control cells (cells not treated with the peptide).

| Structure (SMILES) | MIC 90 [1] [µM] | MIC 90 [2] [µM] | antimicrobial / anti-Candida activity (in words) [3] | MIC 90 [4] [µM] | other results |
| --- | --- | --- | --- | --- | --- |
| CC(C)[C@H](NC(=O)[C@H](Cc1ccccc1)NC(=O)[C@H](CCCCN)NC(=O)C(C)(C)NC(=O)[C@H](Cc1c[nH]c2ccccc12)NC(=O)[C@H](CCCNC(=N)N)NC(=O)[C@@H](Cc1ccc2ccccc2c1)NC(=O)[C@@H](N)Cc1c[nH]cn1)C(N)=O [Peptide 1, H-His-D(2′)Nal-Arg-Trp-Aib-Lys-Phe-Val-NH2] (HELM PEPTIDE1{H.[O=C([C@@H](Cc1ccc2ccccc2c1)N[*:1])[*:2]].R.W.[Aib].K.F.V.[am]}$$$$V2.0) | >100 | 97 (≈ 112 µg/mL) | did not show antimicrobial activity | – | – |
| CCC(CC)(NC(=O)[C@H](Cc1c[nH]c2ccccc12)NC(=O)[C@H](CCCNC(=N)N)NC(=O)[C@@H](Cc1ccc2ccccc2c1)NC(=O)[C@@H](N)Cc1c[nH]cn1)C(=O)N[C@@H](CCCCN)C(=O)N[C@@H](Cc1ccccc1)C(=O)N[C@H](C(N)=O)C(C)C [Peptide 2, H-His-D(2′)Nal-Arg-Trp-Deg-Lys-Phe-Val-NH2] (HELM PEPTIDE1{H.[O=C([C@@H](Cc1ccc2ccccc2c1)N[*:1])[*:2]].R.W.[CCC(CC)(N[*:1])C(=O)[*:2]].K.F.V.[am]}$$$$V2.0) | >100 | >100 | did not show antimicrobial activity | >100 | – |
| CC(C)[C@H](NC(=O)[C@H](Cc1ccccc1)NC(=O)[C@H](CCCCN)NC(=O)C1(NC(=O)[C@H](Cc2c[nH]c3ccccc23)NC(=O)[C@H](CCCNC(=N)N)NC(=O)[C@@H](Cc2ccc3ccccc3c2)NC(=O)[C@@H](N)Cc2c[nH]cn2)CCC1)C(N)=O [Peptide 5, H-His-D(2′)Nal-Arg-Trp-Ac4c -Lys-Phe-Val-NH2] (HELM PEPTIDE1{H.[O=C([C@@H](Cc1ccc2ccccc2c1)N[*:1])[*:2]].R.W.[O=C(C1(N[*:1])CCC1)[*:2]].K.F.V.[am]}$$$$V2.0) | >100 | 99 (≈ 115 µg/mL) | weak activity | – | – |
| CC(C)[C@H](NC(=O)[C@H](Cc1ccccc1)NC(=O)[C@H](CCCCN)NC(=O)C1(NC(=O)[C@H](Cc2c[nH]c3ccccc23)NC(=O)[C@H](CCCNC(=N)N)NC(=O)[C@@H](Cc2ccc3ccccc3c2)NC(=O)[C@@H](N)Cc2c[nH]cn2)CCCC1)C(N)=O [Peptide 6, H-His-D(2′)Nal-Arg-Trp-Ac5c-Lys-Phe-Val-NH2] (HELM PEPTIDE1{H.[O=C([C@@H](Cc1ccc2ccccc2c1)N[*:1])[*:2]].R.W.[O=C(C1(N[*:1])CCCC1)[*:2]].K.F.V.[am]}$$$$V2.0) | >100 | >100 | substantial activity | – | – |
| CC(C)[C@H](NC(=O)[C@H](Cc1ccccc1)NC(=O)[C@H](CCCCN)NC(=O)C1(NC(=O)[C@H](Cc2c[nH]c3ccccc23)NC(=O)[C@H](CCCNC(=N)N)NC(=O)[C@@H](Cc2ccc3ccccc3c2)NC(=O)[C@@H](N)Cc2c[nH]cn2)CCCCC1)C(N)=O [Peptide 7, H-His-D(2′)Nal-Arg-Trp-Ac6c -Lys-Phe-Val-NH2] (HELM PEPTIDE1{H.[O=C([C@@H](Cc1ccc2ccccc2c1)N[*:1])[*:2]].R.W.[O=C(C1(N[*:1])CCCCC1)[*:2]].K.F.V.[am]}$$$$V2.0) | >100 | – | substantial activity | 51 (≈ 60.9 µg/mL) | – |
| CC(C)[C@H](NC(=O)[C@H](Cc1ccccc1)NC(=O)[C@H](CCCCN)NC(=O)C1(NC(=O)[C@H](Cc2c[nH]c3ccccc23)NC(=O)[C@H](CCCNC(=N)N)NC(=O)[C@@H](Cc2ccc3ccccc3c2)NC(=O)[C@@H](N)Cc2c[nH]cn2)Cc2ccccc2C1)C(N)=O [Peptide 8, H-His-D(2′)Nal-Arg-Trp-Aic-Lys-Phe-Val-NH2] (HELM PEPTIDE1{H.[O=C([C@@H](Cc1ccc2ccccc2c1)N[*:1])[*:2]].R.W.[O=C(C1(N[*:1])Cc2ccccc2C1)[*:2]].K.F.V.[am]}$$$$V2.0) | 100 (≈ 123 µg/mL) | – | – | – | MIC 100 [5]: 12.5 µM (≈ 15.3 µg/mL); MIC 100 [6]: 1.56 µM (≈ 1.91 µg/mL); MIC 100 [7]: 12.5 µM (≈ 15.3 µg/mL); MIC 100 [8]: 50 µM (≈ 61.4 µg/mL); MIC 100 [9]: 25 µM (≈ 30.7 µg/mL); MIC 100 [10]: 12.5 µM (≈ 15.3 µg/mL); MIC 100 [11]: 6.25 µM (≈ 7.67 µg/mL); cell death / killing of human keratinocytes [12]: 50–100% |
| CC(C)[C@H](NC(=O)[C@H](Cc1ccccc1)NC(=O)[C@H](CCCCN)NC(=O)CCNC(=O)[C@H](Cc1c[nH]c2ccccc12)NC(=O)[C@H](CCCNC(=N)N)NC(=O)[C@@H](Cc1ccc2ccccc2c1)NC(=O)[C@@H](N)Cc1c[nH]cn1)C(N)=O [Peptide 11, H-His-D(2′)Nal-Arg-Trp-βAla-Lys-Phe-Val-NH2] (HELM PEPTIDE1{H.[O=C([C@@H](Cc1ccc2ccccc2c1)N[*:1])[*:2]].R.W.[bAla].K.F.V.[am]}$$$$V2.0) | >100 | >100 | no anti-Candida activity | >100 | – |
| CC(C)[C@H](NC(=O)[C@H](Cc1ccccc1)NC(=O)[C@H](CCCCN)NC(=O)[C@@H]1CCC[C@H]1NC(=O)[C@H](Cc1c[nH]c2ccccc12)NC(=O)[C@H](CCCNC(=N)N)NC(=O)[C@@H](Cc1ccc2ccccc2c1)NC(=O)[C@@H](N)Cc1c[nH]cn1)C(N)=O [Peptide 12, H-His-D(2′)Nal-Arg-Trp-Acpc-Lys-Phe-Val-NH2] (HELM PEPTIDE1{H.[O=C([C@@H](Cc1ccc2ccccc2c1)N[*:1])[*:2]].R.W.[O=C([C@@H]1CCC[C@H]1N[*:1])[*:2]].K.F.V.[am]}$$$$V2.0) | >100 | >100 | no anti-Candida activity | >100 | – |
| CC(C)[C@H](NC(=O)[C@H](Cc1ccccc1)NC(=O)[C@H](CCCCN)NC(=O)CNC(=O)CNC(=O)[C@H](Cc1c[nH]c2ccccc12)NC(=O)[C@H](CCCNC(=N)N)NC(=O)[C@@H](Cc1ccc2ccccc2c1)NC(=O)[C@@H](N)Cc1c[nH]cn1)C(N)=O [Peptide 13, H-His-D(2′)Nal-Arg-Trp-Gly-Gly-Lys-Phe-Val-NH2] (HELM PEPTIDE1{H.[O=C([C@@H](Cc1ccc2ccccc2c1)N[*:1])[*:2]].R.W.G.G.K.F.V.[am]}$$$$V2.0) | >100 | >100 | no activity | >100 | – |
